{"source": "PubChem BioAssay (NCI)", "experiment_in_all_cases": "growth of human tumour cells (NCI), 48 h", "key": {"[1]": {"test_system": "HCT-15 colon"}, "[2]": {"test_system": "IGROV1 ovarian"}, "[3]": {"test_system": "MDA-MB-435"}, "[4]": {"test_system": "COLO 205 colon"}, "[5]": {"test_system": "SF-295 CNS"}, "[6]": {"test_system": "MOLT-4 leukemia"}, "[7]": {"test_system": "DU-145 prostate"}, "[8]": {"test_system": "A549 NSCLC"}, "[9]": {"test_system": "SN12C renal"}, "[10]": {"test_system": "MCF7 breast"}}, "note": "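Following 48 hours of exposure in 96-well plates, responses at five concentrations were used to interpolate endpoints linearly. GI50 = concentration required for 50% inhibition of growth. TGI: total growth inhibition.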", "data": [{"smiles": "Cc1ccn2c(CCc3nnc4cc(C)ccn34)nnc2c1", "values": [{"measurement": "TGI", "setting": "[1]", "result": "> 100", "unit": "µM"}, {"measurement": "TGI", "setting": "[2]", "result": "> 100", "unit": "µM"}, {"measurement": "TGI", "setting": "[3]", "result": "> 100", "unit": "µM"}, {"measurement": "TGI", "setting": "[4]", "result": "> 100", "unit": "µM"}, {"measurement": "TGI", "setting": "[5]", "result": "> 100", "unit": "µM"}, {"measurement": "TGI", "setting": "[6]", "result": "> 100", "unit": "µM"}, {"measurement": "TGI", "setting": "[7]", "result": "> 100", "unit": "µM"}, {"measurement": "TGI", "setting": "[8]", "result": "> 100", "unit": "µM"}, {"measurement": "TGI", "setting": "[9]", "result": "> 100", "unit": "µM"}, {"measurement": "TGI", "setting": "[10]", "result": "> 100", "unit": "µM"}]}, {"smiles": "c1cncc(C2Nc3cccc4cccc(c34)N2)c1", "values": [{"measurement": "GI50", "setting": "[1]", "result": 26.3, "unit": "µM"}, {"measurement": "TGI", "setting": "[1]", "result": "> 100", "unit": "µM"}, {"measurement": "GI50", "setting": "[2]", "result": 11.8, "unit": "µM"}, {"measurement": "TGI", "setting": "[2]", "result": 25.6, "unit": "µM"}, {"measurement": "GI50", "setting": "[3]", "result": 35.7, "unit": "µM"}, {"measurement": "TGI", "setting": "[3]", "result": "> 100", "unit": "µM"}, {"measurement": "GI50", "setting": "[4]", "result": 22.6, "unit": "µM"}, {"measurement": "TGI", "setting": "[4]", "result": 46.6, "unit": "µM"}, {"measurement": "GI50", "setting": "[5]", "result": 49.7, "unit": "µM"}, {"measurement": "TGI", "setting": "[5]", "result": "> 100", "unit": "µM"}, {"measurement": "GI50", "setting": "[6]", "result": 42.5, "unit": "µM"}, {"measurement": "TGI", "setting": "[6]", "result": "> 100", "unit": "µM"}, {"measurement": "GI50", "setting": "[7]", "result": "> 100", "unit": "µM"}, {"measurement": "TGI", "setting": "[7]", "result": "> 100", "unit": "µM"}, {"measurement": "GI50", "setting": "[8]", "result": 38.8, "unit": "µM"}, {"measurement": "TGI", "setting": "[8]", "result": "> 100", "unit": "µM"}, {"measurement": "GI50", "setting": "[9]", "result": 53.4, "unit": "µM"}, {"measurement": "TGI", "setting": "[9]", "result": "> 100", "unit": "µM"}, {"measurement": "GI50", "setting": "[10]", "result": 18.7, "unit": "µM"}, {"measurement": "TGI", "setting": "[10]", "result": 60.6, "unit": "µM"}]}, {"smiles": "CN1CCN(c2nc(NCCCNc3ccnc4cc(Cl)ccc34)c3ccccc3n2)CC1", "values": [{"measurement": "GI50", "setting": "[1]", "result": 5.33, "unit": "µM"}, {"measurement": "TGI", "setting": "[1]", "result": 18.8, "unit": "µM"}, {"measurement": "GI50", "setting": "[2]", "result": 4.52, "unit": "µM"}, {"measurement": "TGI", "setting": "[2]", "result": 18.9, "unit": "µM"}, {"measurement": "GI50", "setting": "[3]", "result": 2.09, "unit": "µM"}, {"measurement": "TGI", "setting": "[3]", "result": 4.33, "unit": "µM"}, {"measurement": "GI50", "setting": "[4]", "result": 1.86, "unit": "µM"}, {"measurement": "TGI", "setting": "[4]", "result": 4.51, "unit": "µM"}, {"measurement": "GI50", "setting": "[5]", "result": 2.05, "unit": "µM"}, {"measurement": "TGI", "setting": "[5]", "result": 4.92, "unit": "µM"}, {"measurement": "GI50", "setting": "[6]", "result": 3.25, "unit": "µM"}, {"measurement": "TGI", "setting": "[6]", "result": 15.2, "unit": "µM"}, {"measurement": "GI50", "setting": "[7]", "result": 6.11, "unit": "µM"}, {"measurement": "TGI", "setting": "[7]", "result": 18.4, "unit": "µM"}, {"measurement": "GI50", "setting": "[8]", "result": 5.01, "unit": "µM"}, {"measurement": "TGI", "setting": "[8]", "result": 19.2, "unit": "µM"}, {"measurement": "GI50", "setting": "[9]", "result": 4.97, "unit": "µM"}, {"measurement": "TGI", "setting": "[9]", "result": 18, "unit": "µM"}, {"measurement": "GI50", "setting": "[10]", "result": 2.37, "unit": "µM"}, {"measurement": "TGI", "setting": "[10]", "result": 13.2, "unit": "µM"}]}, {"smiles": "CC(=O)C1=C(C)N(C)C2(O)C=CC(=O)C3=C(O)c4ccccc4C(=O)C312", "note": "(centres undefined)", "values": [{"measurement": "GI50", "setting": "[1]", "result": 5.41, "unit": "µM"}, {"measurement": "TGI", "setting": "[1]", "result": 21.7, "unit": "µM"}, {"measurement": "GI50", "setting": "[2]", "result": 23.5, "unit": "µM"}, {"measurement": "TGI", "setting": "[2]", "result": "> 100", "unit": "µM"}, {"measurement": "GI50", "setting": "[3]", "result": 2.12, "unit": "µM"}, {"measurement": "TGI", "setting": "[3]", "result": 3.89, "unit": "µM"}, {"measurement": "GI50", "setting": "[4]", "result": 13.8, "unit": "µM"}, {"measurement": "TGI", "setting": "[4]", "result": 38, "unit": "µM"}, {"measurement": "GI50", "setting": "[5]", "result": 5.03, "unit": "µM"}, {"measurement": "TGI", "setting": "[5]", "result": 19.6, "unit": "µM"}, {"measurement": "GI50", "setting": "[6]", "result": 3.53, "unit": "µM"}, {"measurement": "TGI", "setting": "[6]", "result": "> 100", "unit": "µM"}, {"measurement": "GI50", "setting": "[7]", "result": 5.27, "unit": "µM"}, {"measurement": "TGI", "setting": "[7]", "result": 21.8, "unit": "µM"}, {"measurement": "GI50", "setting": "[8]", "result": 23, "unit": "µM"}, {"measurement": "TGI", "setting": "[8]", "result": "> 100", "unit": "µM"}, {"measurement": "GI50", "setting": "[9]", "result": 3.13, "unit": "µM"}, {"measurement": "TGI", "setting": "[9]", "result": 8.81, "unit": "µM"}, {"measurement": "GI50", "setting": "[10]", "result": 12.2, "unit": "µM"}, {"measurement": "TGI", "setting": "[10]", "result": 36.1, "unit": "µM"}]}, {"smiles": "C/C(=N\\NC(=S)N1CCCCCCCCCCCC1)c1ccccn1", "values": [{"measurement": "TGI", "setting": "[1]", "result": 1.6, "unit": "µM"}, {"measurement": "TGI", "setting": "[2]", "result": 1.35, "unit": "µM"}, {"measurement": "TGI", "setting": "[3]", "result": 0.721, "unit": "µM"}, {"measurement": "TGI", "setting": "[5]", "result": 1.01, "unit": "µM"}, {"measurement": "TGI", "setting": "[6]", "result": 1.07, "unit": "µM"}, {"measurement": "TGI", "setting": "[7]", "result": 1.94, "unit": "µM"}, {"measurement": "TGI", "setting": "[8]", "result": 1.35, "unit": "µM"}, {"measurement": "TGI", "setting": "[9]", "result": 2.19, "unit": "µM"}, {"measurement": "TGI", "setting": "[10]", "result": 0.674, "unit": "µM"}]}, {"smiles": "N#Cc1c(N)nc(N)nc1N[C@H](c1nc2c(F)ccc(Cl)c2c(=O)n1-c1cccnc1)C1CC1", "values": [{"measurement": "GI50", "setting": "[1]", "result": 14.9, "unit": "µM"}, {"measurement": "TGI", "setting": "[1]", "result": 56.7, "unit": "µM"}, {"measurement": "GI50", "setting": "[2]", "result": 1.22, "unit": "µM"}, {"measurement": "TGI", "setting": "[2]", "result": 5.31, "unit": "µM"}, {"measurement": "GI50", "setting": "[3]", "result": 13, "unit": "µM"}, {"measurement": "TGI", "setting": "[3]", "result": 34.4, "unit": "µM"}, {"measurement": "GI50", "setting": "[4]", "result": 8.74, "unit": "µM"}, {"measurement": "TGI", "setting": "[4]", "result": 25.8, "unit": "µM"}, {"measurement": "GI50", "setting": "[5]", "result": 1.18, "unit": "µM"}, {"measurement": "TGI", "setting": "[5]", "result": 13.2, "unit": "µM"}, {"measurement": "GI50", "setting": "[6]", "result": 3.33, "unit": "µM"}, {"measurement": "TGI", "setting": "[6]", "result": 28.8, "unit": "µM"}, {"measurement": "GI50", "setting": "[7]", "result": 11, "unit": "µM"}, {"measurement": "TGI", "setting": "[7]", "result": "> 100", "unit": "µM"}, {"measurement": "GI50", "setting": "[8]", "result": 6.22, "unit": "µM"}, {"measurement": "TGI", "setting": "[8]", "result": 21.2, "unit": "µM"}, {"measurement": "GI50", "setting": "[9]", "result": 10.8, "unit": "µM"}, {"measurement": "TGI", "setting": "[9]", "result": "> 100", "unit": "µM"}, {"measurement": "GI50", "setting": "[10]", "result": 2.04, "unit": "µM"}, {"measurement": "TGI", "setting": "[10]", "result": "> 100", "unit": "µM"}]}, {"smiles": "Nc1nc(N)c2c(n1)NC(c1ccccc1)C1CCc3ccccc3C1=N2", "note": "(centres undefined)", "values": [{"measurement": "GI50", "setting": "[1]", "result": 4.06, "unit": "µM"}, {"measurement": "TGI", "setting": "[1]", "result": 17.1, "unit": "µM"}, {"measurement": "GI50", "setting": "[2]", "result": 4.45, "unit": "µM"}, {"measurement": "TGI", "setting": "[2]", "result": 19.4, "unit": "µM"}, {"measurement": "GI50", "setting": "[3]", "result": 2.93, "unit": "µM"}, {"measurement": "TGI", "setting": "[3]", "result": 12.6, "unit": "µM"}, {"measurement": "GI50", "setting": "[4]", "result": 3.07, "unit": "µM"}, {"measurement": "TGI", "setting": "[4]", "result": 10.9, "unit": "µM"}, {"measurement": "GI50", "setting": "[5]", "result": 1.69, "unit": "µM"}, {"measurement": "TGI", "setting": "[5]", "result": 8.12, "unit": "µM"}, {"measurement": "GI50", "setting": "[6]", "result": 2.7, "unit": "µM"}, {"measurement": "TGI", "setting": "[6]", "result": 14.7, "unit": "µM"}, {"measurement": "GI50", "setting": "[7]", "result": 4.38, "unit": "µM"}, {"measurement": "TGI", "setting": "[7]", "result": 17.1, "unit": "µM"}, {"measurement": "GI50", "setting": "[8]", "result": 7.11, "unit": "µM"}, {"measurement": "TGI", "setting": "[8]", "result": 26, "unit": "µM"}, {"measurement": "GI50", "setting": "[9]", "result": 7.33, "unit": "µM"}, {"measurement": "TGI", "setting": "[9]", "result": 21.3, "unit": "µM"}, {"measurement": "GI50", "setting": "[10]", "result": 3.25, "unit": "µM"}, {"measurement": "TGI", "setting": "[10]", "result": 13.5, "unit": "µM"}]}]}
